For data set [1], the system named is Mycobacterium avium ATCC700898. In words: Determination of IC85 against M. avium (resazurin fluorescence). It is filed as cell-based. (Resazurin is reduced to fluorescent resorufin, in cell work by metabolically active cells.)
The nature of data set [2]: Metabolic stability test in pooled human liver microsomes. In kind it is in vitro ADME. The following applies: human liver microsomes 0.5 mg protein/mL, 1 mmol/L NADPH, 37° C., 30 minutes. Here is the method:
Using a commercially available pooled human liver microsomes, a compound of the present invention was reacted for a constant time, a remaining rate was calculated by comparing a reacted sample and an unreacted sample, thereby, a degree of metabolism in liver was assessed.
A reaction was performed (oxidative reaction) at 37° C. for 0 minute or 30 minutes in the presence of 1 mmol/L NADPH in 0.2 mL of a buffer (50 mmol/L Tris-HCl pH 7.4, 150 mmol/L potassium chloride, 10 mmol/L magnesium chloride) containing 0.5 mg protein/mL of human liver microsomes. After the reaction, 50 μL of the reaction solution was added to 100 μL of a methanol/acetonitrile=1/1 (v/v), mixed and centrifuged at 3000 rpm for 15 minutes. The compound of the present invention in the supernatant was quantified by LC/MS/MS or solid phase extraction (SPE)/MS, and a remaining amount of the compound of the present invention after the reaction was calculated, letting a compound amount at 0 minute reaction time to be 100%.

Where [3] appears, read: Mycobacterium avium, ATCC700898, M. avium ATCC700898, CAMHB medium, 37° C., 3 days incubation then resazurin, fluorescence one day later, read-out: IC85.

Structures are written as SMILES. Read-outs that look alike come from different tables or passages of the source.

Consider `CCc1nc2ccc(Cl)cn2c1C(=O)NCc1ccc(-n2cc3c(n2)CN(c2ccc(OC(F)(F)F)cc2)C3)c(F)c1.Cc1ccc(S(=O)(=O)O)cc1` [Compound I-3-45], for which, in data set [1] (Mycobacterium avium, ATCC700898), the IC85 stood at 0.0046 µM. Also, the “MS_h_% (remaining amount of compound after reaction, 0 minute = 100%)” value in data set [2] is 63.2%.
For `Cc1nn2ccc(F)cc2c1C(=O)NCc1ccc(N2CCN(c3ccc(OC(F)(F)F)cc3)[C@@H](C)C2)c(F)c1.Cl` [Compound I-1-152], in data set [1] (setting [3]), the IC85 was determined as 0.11 µM. The “MS_h_% (remaining amount of compound after reaction, 0 minute = 100%)” value in data set [2] was 87%.
In the same order, the values of `CCc1nc2ccc(Cl)cn2c1C(=O)NCc1ccc(N2CCN(c3ccc(OC(F)(F)F)cc3)[C@@H](C)C2)c(F)c1F.Cl` [Compound I-1-93] are 0.011 µM and 67%.
Consider `Cc1ccn2c(C(=O)NCc3ccc(C4CCN(c5ccc(OCCF)cc5)CC4)c(F)c3)c(C)nc2c1` [Compound I-1-5], for which, in data set [1] (setting [3]), the IC85 was found to be 0.048 µM. Further, the “MS_h_% (remaining amount of compound after reaction, 0 minute = 100%)” value in data set [2] is on record as 70%.
Taken in the same sequence, the figures for `Cc1nc2ccc(F)cn2c1C(=O)NCc1ccc(N2CCN(c3ccc(OC(F)(F)F)cc3)[C@H](C)C2)c(F)c1.Cl` [Compound I-1-84] were 0.038 µM and 86%.
Taken in the same sequence, the figures for `CCCCOc1ccc(N2CCC(c3ccc(CNC(=O)c4c(CC)nc5ccc(Cl)cn45)cc3F)CC2)cc1.Cl` [Compound I-1-78] were 0.037 µM and 69%.
With `CCc1nc2cc(F)ccn2c1C(=O)NCc1ccc(N2CCN(c3ccc(OC(C)C)cc3)[C@@H](C)C2)c(F)c1.Cl` [Compound I-1-111], the IC85 in data set [1] (setting [3]) is 0.0071 µM. The “MS_h_% (remaining amount of compound after reaction, 0 minute = 100%)” value in data set [2] was found to be 88%.
`CCOc1ccc(N2CCN(c3ccc(CNC(=O)c4c(CC)nc5ccc(Cl)cn45)c(F)c3)C[C@@H]2C)c(F)c1.Cl` [Compound I-1-101]: in data set [1] (setting [3]), the IC85 was determined as 0.47 µM. Besides, the “MS_h_% (remaining amount of compound after reaction, 0 minute = 100%)” value in data set [2] was found to be 90%.
In the same order, the values of `CCc1nc2ccc(Cl)cn2c1C(=O)NCc1ccc(C2=CCC(c3ccc(OC(F)(F)F)cc3)CC2)c(F)c1.Cl` (stereo not shown) [Compound I-1-138] are 0.0068 µM and 83%.
Consider `Cc1ccn2c(C(=O)NCc3ccc(N4CCN(c5ccc(OC(F)(F)F)cc5)[C@H](C)C4)c(F)c3)c(C)nc2c1` [Compound I-1-12], for which the IC85 in data set [1] (setting [3]) came out at 0.07 µM. Further, the “MS_h_% (remaining amount of compound after reaction, 0 minute = 100%)” value in data set [2] was 64%.
Taken in the same sequence, the figures for `CCc1nc2cc(F)ccn2c1C(=O)NCc1ccc(N2CCN(c3ccc(OC(F)(F)F)cc3)[C@H]3CCCC[C@@H]32)c(F)c1.Cl` [Compound I-1-124] were 0.87 µM and 63%.
Taken in the same sequence, the figures for `Cc1ccn2c(C(=O)NCc3ccc(C4CCN(c5ccc(OC(F)(F)F)cc5)CC4)c(F)c3)c(C(F)(F)F)nc2c1` [Compound I-1-15] were 0.057 µM and 71%.
As for `COc1ccn2nc(C)c(C(=O)NCc3ccc(N4C[C@H](C)N(c5ccc(OC(F)(F)F)cc5)C[C@H]4C)c(F)c3)c2c1.Cl` [Compound I-1-153], in data set [1] (setting [3]), the IC85 worked out at 0.031 µM. The “MS_h_% (remaining amount of compound after reaction, 0 minute = 100%)” value in data set [2] is reported as 72%.
For `Cc1nc2cc(Cl)ccn2c1C(=O)NCc1ccc(N2CCN(c3ccc(OC(F)(F)F)cc3)[C@@H](C)C2)c(F)c1.Cl` [Compound I-1-51], the IC85 in data set [1] (setting [3]) is 0.11 µM. In addition, in data set [2], the “MS_h_% (remaining amount of compound after reaction, 0 minute = 100%)” value amounted to 90%.
With `C[C@H]1CN(c2ccc(CNC(=O)c3c(C(F)(F)F)nc4ccc(Cl)cn34)cc2F)CCN1c1ccc(OC(F)(F)F)cc1` [Compound I-1-24], in data set [1] (M. avium ATCC700898, CAMHB medium, 37° C., 3 days incubation then resazurin, fluorescence one day later), the IC85 turned out to be 0.032 µM. The “MS_h_% (remaining amount of compound after reaction, 0 minute = 100%)” value in data set [2] came to 62%.
With `CCc1nc2cc(F)ccn2c1C(=O)NCc1ccc(C2CCN(c3ccc(C)cc3)CC2)cc1F.Cl` [Compound I-1-148], the IC85 in data set [1] (setting [3]) came out at 0.0054 µM. For the same compound, the “MS_h_% (remaining amount of compound after reaction, 0 minute = 100%)” value in data set [2] is on record as 73%.
Taken in the same sequence, the figures for `CCc1nc2cc(F)ccn2c1C(=O)NCc1ccc(N2CCN(c3cc(F)c(OC(F)(F)F)c(F)c3)[C@@H](C)C2)c(F)c1.Cl` [Compound I-1-119] were 0.0065 µM and 63%.
In the same order, the values of `CCOc1ccc(N2CCC(c3ccc(CNC(=O)c4c(CC)nc5cc(F)ccn45)c(F)c3)CC2)cc1.Cl` [Compound I-1-147] are 0.0083 µM and 91%.
On to `CCc1nc2cc(F)ccn2c1C(=O)NCc1ccc(N2CCN(c3ccc(C(F)(F)F)cn3)[C@@H](C)C2)c(F)c1.Cl` [Compound I-1-113], for which, in data set [1] (setting [3]), the IC85 was 0.0048 µM. For the same compound, in data set [2], the “MS_h_% (remaining amount of compound after reaction, 0 minute = 100%)” value was 79%.
Turning to `Cc1ccn2c(C(=O)NCc3ccc(N4CCC(c5ccc(OC(F)(F)F)cc5)[C@@H](C)C4)c(F)c3)c(Cl)nc2c1.Cl` (stereo partly shown) [Compound I-1-58], the IC85 in data set [1] (setting [3]) came out at 0.077 µM. Moreover, the “MS_h_% (remaining amount of compound after reaction, 0 minute = 100%)” value in data set [2] is given as 89%.
For the compound `CCc1nc2ccc(Cl)cn2c1C(=O)NCc1ccc(N2CCN(c3ccc(OC(F)(F)F)cc3F)[C@@H](C)C2)c(F)c1.Cl` [Compound I-1-98], the IC85 in data set [1] (setting [3]) is 0.0088 µM. In addition, in data set [2], the “MS_h_% (remaining amount of compound after reaction, 0 minute = 100%)” value is reported as 76%.
For `Cc1cn2c(C(=O)NCc3ccc(Oc4cccc(C(F)(F)F)c4)cc3)c(C)nc2s1` [Compound I-3-46], the IC85 in data set [1] (setting [3]) came out at 0.61 µM. For the same compound, the “MS_h_% (remaining amount of compound after reaction, 0 minute = 100%)” value in data set [2] came out at 63.1%.
As to `CCc1nc2ccc(Cl)cn2c1C(=O)NCc1ccc(N2CCN(c3ccc(OC(F)(F)F)cc3F)[C@@H](CC)C2)c(F)c1.Cl` [Compound I-2-10], the IC85 in data set [1] (setting [3]) is 0.023 µM. Also, the “MS_h_% (remaining amount of compound after reaction, 0 minute = 100%)” value in data set [2] is given as 72.2%.
Taken in the same sequence, the figures for `Cc1ccn2c(C(=O)NCc3ccc(N4CCC(c5ccc(OC(F)(F)F)cc5)CC4)c(Cl)c3)c(C)nc2c1.Cl` [Compound I-1-82] were 0.5 µM and 98%.
Taken in the same sequence, the figures for `CCc1nc2cc(F)ccn2c1C(=O)NCc1ccc(N2CCN(c3ccc(OC4CC4)cc3)[C@@H](C)C2)c(F)c1.Cl` [Compound I-1-110] were 0.0093 µM and 80%.
Consider `Cc1cn2c(C(=O)NCc3ccc(N4CCN(c5ccc(C(F)(F)F)cn5)CC4)c(C(F)(F)F)c3)c(C)nc2cc1Cl` [Compound I-2-7], for which, in data set [1] (setting [3]), the IC85 turned out to be 0.59 µM. Besides, the “MS_h_% (remaining amount of compound after reaction, 0 minute = 100%)” value in data set [2] was determined as 79.3%.
Take `COc1ccn2nc(C)c(C(=O)NCc3ccc(N4CCN(c5ccc(OC(F)(F)F)cc5)[C@@H](C)C4)c(F)c3F)c2c1.Cl` [Compound I-1-130]: in data set [1] (setting [3]), the IC85 came out at 0.049 µM. Moreover, in data set [2], the “MS_h_% (remaining amount of compound after reaction, 0 minute = 100%)” value was 74%.
Regarding `Cc1ccc2nc(C)c(C(=O)NCc3ccc(-c4ccc(C(F)(F)F)cc4)cc3)n2c1` [Compound I-3-33], the IC85 in data set [1] (setting [3]) worked out at 0.0022 µM. Moreover, in data set [2], the “MS_h_% (remaining amount of compound after reaction, 0 minute = 100%)” value was 72.6%.
`CCc1nc2ccc(Cl)cn2c1C(=O)NCc1ccc(-n2ccc(C(F)(F)F)n2)cc1` [Compound I-3-25]: the IC85 in data set [1] (setting [3]) worked out at 0.14 µM. Moreover, in data set [2], the “MS_h_% (remaining amount of compound after reaction, 0 minute = 100%)” value is 77%.
Taken in the same sequence, the figures for `CCc1nc2ccc(Cl)cn2c1C(=O)NCc1ccc(-n2cc3c(n2)CN(c2ccc(OC(F)(F)F)cc2)C3)c(F)c1.Cl` [Compound I-3-47] were 0.0051 µM and 62%.
Taken in the same sequence, the figures for `Cc1ccn2c(C(=O)NCc3ccc(-c4ccc(OCC(F)(F)F)cc4)c(F)c3)c(C)nc2c1` [Compound I-3-4] were 0.043 µM and 94.6%.
As for `COc1ccn2nc(C)c(C(=O)NCc3ccc(N4CCN(c5ccc(OC(F)(F)F)cc5)[C@H](C)C4)c(F)c3)c2c1.Cl` [Compound I-1-91], in data set [1] (setting [3]), the IC85 amounted to 0.0053 µM. Moreover, the “MS_h_% (remaining amount of compound after reaction, 0 minute = 100%)” value in data set [2] is reported as 89%.
Consider `CCc1nc2ccc(Cl)cn2c1C(=O)NCc1ccc(N2CCN(c3ccc(OC(F)(F)F)cc3)[C@@H](C)C2)c(Cl)c1.Cl` [Compound I-1-139], for which the IC85 in data set [1] (setting [3]) is 0.009 µM. Moreover, the “MS_h_% (remaining amount of compound after reaction, 0 minute = 100%)” value in data set [2] amounted to 61%.
Turning to `CCc1nc2ccc(Cl)cn2c1C(=O)NCc1ccc([C@@H]2CO[C@@H](c3ccc(OC(F)(F)F)cc3)CO2)c(F)c1` [Compound I-1-86], the IC85 in data set [1] (setting [3]) was determined as 0.028 µM. The “MS_h_% (remaining amount of compound after reaction, 0 minute = 100%)” value in data set [2] is listed as 77%.
In the same order, the values of `Cc1nc2cc(Cl)ccn2c1C(=O)NCc1ccc(N2CC=C(c3ccc(OC(F)(F)F)cc3)CC2)c(F)c1.Cl` [Compound I-1-60] are 0.011 µM and 72%.
Taken in the same sequence, the figures for `Cc1ccn2c(C(=O)NCc3ccc(N4CCN(CC(F)F)CC4)c(F)c3)cnc2c1` [Compound I-3-42] were 0.93 µM and 64.6%.
Taken in the same sequence, the figures for `CCc1nc2ccc(C#N)cn2c1C(=O)NCc1ccc(N2CCN(c3ccc(OC(F)(F)F)cc3)[C@@H](C)C2)c(F)c1` [Compound I-1-36] were 0.11 µM and 79%.
As for `Cc1ccn2c(C(=O)NCc3ccc4oc(-c5ccc(OC(F)(F)F)cc5)nc4c3)c(C)nc2c1.Cl` [Compound I-3-17], in data set [1] (setting [3]), the IC85 turned out to be 0.86 µM. Besides, in data set [2], the “MS_h_% (remaining amount of compound after reaction, 0 minute = 100%)” value was 81.1%.

For the origin of these results see patent US20220340566A1, “BENZYL AMINE-CONTAINING 5,6-HETEROAROMATIC COMPOUNDS USEFUL AGAINST MYCOBACTERIAL INFECTION” (priority 2019, published 2022).
